Measured values: ChEMBL document CHEMBL1156311, “Discovery of sulfonamide-pyrazole gamma-secretase inhibitors” (Bioorg Med Chem Lett, 2010)

Assay: Inhibition of gamma-secretase
Conditions: not given

IC50 [nM] | Compound
70 | CC(=O)Nc1n[nH]c2c1C1CCCC(C2)N1S(=O)(=O)c1ccc(Cl)cc1 (stereo not drawn)
25 | O=C1NCCCC[C@H]1N(Cc1ccc(Br)cc1)S(=O)(=O)c1ccc(Cl)cc1
1700 | CN1CCCC[C@@H](N(Cc2ccc(Br)cc2)S(=O)(=O)c2ccc(Cl)cc2)C1=O
9000 | COc1ncc2c(n1)CC1CCCC2N1S(=O)(=O)c1ccc(Cl)cc1 (stereo not drawn)
650 | COc1cc(CN([C@@H]2CCCCNC2=O)S(=O)(=O)c2ccc(Cl)cc2)ccc1OCCc1scnc1C
> 10000 | O=S(=O)(c1ccc(Cl)cc1)N1C2CCCC1c1cnc(O)nc1C2 (stereo not drawn)
3 | O=S(=O)(c1ccc(Cl)cc1)N1C2CCCC1C(F)(F)c1[nH]ncc12 (stereo not drawn)
> 10000 | Cn1cc2c(n1)CC1CCCC2N1S(=O)(=O)c1ccc(Cl)cc1 (stereo not drawn)
> 10000 | Nc1nc2c(s1)C1CCCC(C2)N1S(=O)(=O)c1ccc(Cl)cc1 (stereo not drawn)
> 10000 | CN(C)c1n[nH]c2c1C1CCCC(C2)N1S(=O)(=O)c1ccc(Cl)cc1 (stereo not drawn)
> 10000 | CSc1ncc2c(n1)CC1CCCC2N1S(=O)(=O)c1ccc(Cl)cc1 (stereo not drawn)
> 10000 | N[C@H]1C[C@H]2CCC[C@@H](C1)N2S(=O)(=O)c1ccc(Cl)cc1
1700 | C[C@@H]1CCC[C@H](C)N1S(=O)(=O)c1ccc(Cl)cc1
> 10000 | CNC1CC2CCCC(C1)N2S(=O)(=O)c1ccc(Cl)cc1 (racemic)
> 10000 | CC(=O)NC1CC2CCCC(C1)N2S(=O)(=O)c1ccc(Cl)cc1 (racemic)
8000 | Cc1ccc(S(=O)(=O)C(=O)NC2CC3CCCC(C2)N3S(=O)(=O)c2ccc(Cl)cc2)cc1 (racemic)

Compound | IC50 [nM]
Nc1ncc2c(n1)CC1CCCC2N1S(=O)(=O)c1ccc(Cl)cc1 (stereo not drawn) | 5500
Cc1n[nH]c2c1C1CCCC(C2)N1S(=O)(=O)c1ccc(Cl)cc1 (stereo not drawn) | 65
O=S(=O)(c1ccc(Cl)cc1)N1C2CCCC1c1c(C(F)(F)F)n[nH]c1C2 (stereo not drawn) | 70
Cn1ncc2c1CC1CCCC2N1S(=O)(=O)c1ccc(Cl)cc1 (stereo not drawn) | > 10000
O=S(=O)(c1ccc(Cl)cc1)N1C2CCCC1CCC2 | 1300
O=S(=O)(c1ccc(Cl)cc1)N1C2CCCC1c1c(C(F)F)n[nH]c1C2 (stereo not drawn) | 85
O=C1c2[nH]ncc2C2CCCC1N2S(=O)(=O)c1ccc(Cl)cc1 (stereo not drawn) | 8
O=S(=O)(c1ccc(Cl)cc1)N1C2CCCC1c1cnoc1C2 (stereo not drawn) | 3500
CSc1n[nH]c2c1C1CCCC(C2)N1S(=O)(=O)c1ccc(Cl)cc1 (stereo not drawn) | 390
Nc1n[nH]c2c1C1CCCC(C2)N1S(=O)(=O)c1ccc(Cl)cc1 (stereo not drawn) | 105
O=S(=O)(c1ccc(Cl)cc1)N1C2CCCC1c1cncnc1C2 (stereo not drawn) | 4700
O=S(=O)(c1ccc(Cl)cc1)N1C2CCCC1c1cn[nH]c1C2 (stereo not drawn) | 4
O=S(=O)(c1ccc(Cl)cc1)N1C2CCCC1CC(=NO)C2 (racemic) | 3300
O=S(=O)(c1ccc(Cl)cc1)N1[C@@H]2CCC[C@H]1C[C@@H](O)C2 (stereo in doubt; 8a) | 3000
O=S(=O)(c1ccc(Cl)cc1)N1[C@@H]2CCC[C@H]1C[C@@H](O)C2 (stereo in doubt; 8b) | 600

Assay: Drug level in FVB mouse cerebral cortex at 100 mg/kg, po after 3 hrs
Assay type: ADME, organism-based
Design: dose 100 mg/kg, route oral
Conditions: read-out: Drug uptake

Compound | concentration at 3 h [nM]
O=S(=O)(c1ccc(Cl)cc1)N1C2CCCC1c1cn[nH]c1C2 (single isomer, unassigned; (+)) | 86

Assay: Drug level in FVB mouse plasma at 100 mg/kg, po after 3 hrs
Assay type: ADME, organism-based
Design: dose 100 mg/kg, route oral
Conditions: not given

Compound | concentration at 3 h [nM]
O=S(=O)(c1ccc(Cl)cc1)N1C2CCCC1c1cn[nH]c1C2 (single isomer, unassigned; (+)) | 194
